Experimental data from patent US9663562B2, “Compositions and methods for treating cancer” (Dana-Farber Cancer Institute, Inc., priority 2013, dated 2017).

Tests used:
Assay type in all cases: cell-based, human
[1] = tested on: MUC16-positive OVCAR3 ovarian cancer cells; experiment: Viable cell number by trypan blue staining, OVCAR3 cells; conditions: OVCAR3, 5 microM, 5 days, vs control
Protocol: (§1) FIG. 1 illustrates the Effects of MUC16 Inhibitor Peptide (IP-16) on MUC16-positive cancer cells. Human MUC16-positive OVCAR3 ovarian cancer (A), MIAPACA2 pancreatic cancer (B) and ASPC1 pancreatic cancer (C) cells were left untreated (Control) or treated with 5 microM IP-16(RRRRRRRR-CLICGVLVTTRRRKK; SEQ ID NO:5) or CP-16 (RRRRRRRR-ALIAGVLVTTRRRKK; SEQ ID NO:6) for 5 days. Viable cell number was determined by trypan blue staining. The results are expressed as cell number (mean+SD of three determinations).
(§2) Viable cell number was determined by trypan blue staining.

[2] = tested on: MUC16-positive MIAPACA2 pancreatic cancer cells; experiment: Viable cell number by trypan blue staining, MIAPACA2 cells; conditions: MIAPACA2, 5 microM, 5 days, vs control
Protocol: as §1, §2

[3] = tested on: MUC16-positive ASPC1 pancreatic cancer cells; experiment: Viable cell number by trypan blue staining, ASPC1 cells; conditions: ASPC1, 5 microM, 5 days, vs control
Protocol: as §1, §2

[4] = tested on: MUC16-negative HEK293T cells; experiment: Growth of MUC16-negative control cells

RRRRRRRR-CLICGVLVTTRRRKK (RRRRRRRRCLICGVLVTTRRRKK) [IP-16]
cell number (viable cells) [1]: significantly reduced
cell number (viable cells) [2]: significantly reduced
cell number (viable cells) [3]: significantly reduced
effect on growth [4]: little, if any, effect
